{"source": "paper PMC8145144", "about": "“Transport of Dietary Anti-Inflammatory Peptide, γ-Glutamyl Valine (γ-EV), across the Intestinal Caco-2 Monolayer” (Nutrients, 2021)", "key": {"[1]": {"system": "Caco-2 monolayer"}, "[2]": {"assay": "MTT cell viability assay", "assay_type": "cell-based, human", "details": "human, Caco-2 cells (differentiated, grown for 15 days), 10 mM, 2 h, read-out: survival rate (cell viability)", "description": "(§1) A clear-bottom 96-well black plate (VWR, #29444-008) was seeded with Caco-2 cells (40,000 cells/well) and grown for 15 days in EMEM media (20% FBS and 1% Pen-Strep) to achieve differentiation of the cells. The MTT assay kit (Abcam, #ab211091) was used to test the cell-viability assay following the manufacturer’s guidelines, as described in the earlier study. For the time-course study, a concentration of 1 mM γ-EV was used for determining the cell toxicity, by incubating it on the Caco-2 cells for 2, 4, and 6 h. For the dose study, the cell toxicity of γ-EV was tested for different doses, such as 2.5, 3, 4, 5, and 10 mM, after incubating the peptide on the cells for 2 h. After the treatment period, the cell media was discarded and replaced with a mixture of 50 μL of the MTT reagent and 50 μL of serum-free EMEM media. After the incubation period of 3 h at 37 °C, the MTT-supplemented media was replaced with 150 μL of MTT solvent. Following that, the plates were incubated on an orbital shaker (200 rpm, 37 °C) (MaxQ 4450, Thermo Fischer Scientific, Waltham, MA, USA) for 15 min, in dark, after which the absorbance of the plate was read at 590 nm (Synergy H1 microplate reader, BioTek, Winooski, VT, USA). The background control readings were subtracted from each of the wells and the cell-viability percentage (%) was calculated using the formula cell viability % = (sample/control) × 100, where the control was cells with no γ-EV treatment, and the sample was the γ-EV treated cells."}, "[3]": {"system": "Caco-2 cells", "assay": "MTT cell viability assay", "assay_type": "cell-based, human", "description": "as §1"}, "[4]": {"system": "Caco-2 monolayer cells", "assay": "in vitro", "assay_type": "in vitro ADME, human", "details": "Caco-2", "description": "(§2) The route of transport of γ-EV across Caco-2 monolayer cells was determined using 1 mM γ-EV transported for 2 h, following the same protocol as mentioned in Section 2.4. However, in this case, four transport inhibitors were used prior to γ-EV addition in the apical layer, to elucidate the mechanism of transport. Theaflavin 3′-gallate (TF3′G) (20 μM), a cell tight-junction enhancer, was added to the EMEM growth medium 24 h before the experiment. Wortmannin (a transcytosis inhibitor, 1 μM), cytochalasin D (a cell tight-junction disruptor, 0.5 μg/mL), and Gly-Sar (PepT1 transporter inhibitor, 25 mM) were added 30 min before γ-EV addition in the HBSS buffer (pH 6.5). After the treatment was over, the apical and basal layers were collected, and the concentration of γ-EV was analyzed and represented via Papp. For this study, some of the replicate inserts were used for harvesting the Caco-2 cells for analyzing the tight-junction proteins via Western immunoblotting, while some of the inserts were used for visualizing the tight-junction proteins through immunofluorescence.\n(§3) LC-MS/MS was used to detect the γ-EV content after the transport study. The instrument used was the Shimadzu LC system (Nexera X2, Columbia, MD, USA), interfaced with a Sciex QTRAP 6500+ mass spectrometer (Redwood City, CA, USA), equipped with a TurboIonSpray (TIS) electrospray ion source (ESI). […] The mobile phases and gradient used were as previously described. Analyst software (version 1.6.3, Redwood City, CA, USA) was used for the sample acquisition control and data analysis. The manufacturer’s recommendations were used for tuning and calibration of the SCIEX QTRAP 6500+ mass spectrometer. The parameters for the ESI operation were as follows: 5500 V ion spray voltage; 500 °C source temperature; ion source gas 1, gas 2, and curtain gas, as 50, 50, and 25, respectively; and collision gas, high. The multiple reaction monitoring (MRM) transitions and the compound settings were previously optimized and described in [11]. An external standard curve, containing different concentrations of the peptide (γ-EV diluted in water), was prepared for the absolute quantification of the peptide. The standards were run alongside the samples (γ-EV in HBSS buffer) in triplicate. The linear range of the standard curve was from 0.016 to 10 μM, with a linear regression slope R^2 of 1 with a CV of <8% for all the dilution points."}, "[5]": {"assay": "in vitro", "assay_type": "in vitro ADME, human", "details": "human", "description": "as §2, §3"}, "[6]": {"system": "PepT1", "assay": "in vitro", "assay_type": "in vitro ADME, human", "details": "human, Caco-2, Papp after Gly-Sar pretreatment", "description": "as §2, §3"}, "[7]": {"system": "Caco-2 monolayer", "set-up": "method as in PMID 32786865", "details": "1 mM γ-EV across Caco-2 cells, previous study; cited from earlier work"}, "[8]": {"assay": "in vitro", "details": "human, Caco-2"}, "[9]": {"system": "Caco-2 cells", "details": "cytochalasin D 0.5 μg/mL, across Caco-2 cells; cited from earlier work"}}, "note": "“Also recorded” adds a separate entry of the source.", "data": [{"molecule": "CC(C)[C@H](NC(=O)CC[C@H](N)C(=O)O)C(=O)O", "note": "[γ-EV, γ-glutamyl valine]", "values": [{"measurement": "Papp range", "setting": "[1]", "result": "1.5–2.5 × 10^−6"}, {"measurement": "change in rate of transport (Papp) vs 1 mM dose", "setting": "[1]", "result": "did not have a significant change"}, {"measurement": "viability at 2 h, 10 mM", "setting": "[2]", "result": 21, "unit": "%"}, {"measurement": "cytotoxicity", "setting": "[3]; 1 mM, exposure 4 and 6 h", "result": "not toxic; also recorded: No cytotoxicity"}, {"measurement": "cytotoxicity", "setting": "[3]; 10 mM, 2 h", "result": "cytotoxic"}, {"measurement": "cytotoxicity", "setting": "[3]; concentrations up to 5 mM, 2 h", "result": "nontoxic; also recorded: not toxic; also recorded: not cytotoxic"}, {"measurement": "decrease of Papp by Gly-Sar vs control", "setting": "[4]", "result": 48, "unit": "%"}, {"measurement": "Papp at 2 h, 1 mM", "setting": "[5]; Caco-2, Papp after TF3′G pretreatment", "result": 0.875, "unit": "×10⁻⁶ cm/s"}, {"measurement": "Papp at 2 h, 1 mM", "setting": "[5]; Caco-2, Papp after cytochalasin D pretreatment", "result": 4.36, "unit": "×10⁻⁶ cm/s"}, {"measurement": "Papp at 2 h, 1 mM", "setting": "[6]", "result": 0.798, "unit": "×10⁻⁶ cm/s"}, {"measurement": "apparent permeability coefficient (Papp)", "setting": "[7]", "result": "1.56 ± 0.7", "unit": "×10⁻⁶ cm/s"}, {"measurement": "Papp A→B at 2 h, 5 mM", "setting": "[8]", "result": 2.5, "unit": "×10⁻⁶ cm/s"}, {"measurement": "Papp A→B at 4 h, 1 mM", "setting": "[8]", "result": 0.678, "unit": "×10⁻⁶ cm/s"}, {"measurement": "Papp A→B at 6 h, 1 mM", "setting": "[8]", "result": 0.746, "unit": "×10⁻⁶ cm/s"}, {"measurement": "Papp at 2 h, 1 mM", "setting": "[8]", "result": 1.56, "unit": "×10⁻⁶ cm/s"}, {"measurement": "Papp at 2 h, 5 mM", "setting": "[8]", "result": 2.49, "unit": "×10⁻⁶ cm/s"}]}, {"molecule": "HLPLP", "values": [{"measurement": "increase of peptide transport by cytochalasin D", "setting": "[9]", "result": 65, "unit": "%"}]}]}
